Laboratory results: patent publication US20230218618A1, “ADMINISTRATION OF SUMO-ACTIVATING ENZYME INHIBITOR AND ANTI-CD38 ANTIBODIES” (MILLENNIUM PHARMACEUTICALS, INC., priority 2020, published 2023)

What was measured:
[1] = system: Daudi human Burkitt’s Lymphoma cell line; experiment: Study 7: Daudi xenograft human Burkitt's lymphoma subcutaneous tumor model (daratumumab or AB79); assay type: in vivo, CB17 SCID mice; details: for GRI%: vs vehicle; for Tumor growth relative to vehicle-treated tumors (pairwise comparison): each agent 7.5 mg/kg BIW, I-263a p = 0.105, daratumumab p < 0.001, AB79 p = 0.002, both combinations p < 0.001, data up to Day 22
Description: (§1) Low tumor volumes can cause problems with the data analysis, so all measurements below 25 cubic mm (including 0 values) were excluded from the analysis. After this exclusion step, the tumor volume was assumed to follow an exponential growth model. More specifically, for a given animal and treatment group,
(§2) Pairwise comparisons were performed, where the mean growth rates were compared for various pairs of treatment conditions. The results were summarized using the growth rate inhibition (GRI). Suppose µT and µC are the mean tumor growth rates for the treatment and reference groups, respectively. Define
(§3) Here, µAB, µA, µB, and µControl are the mean growth rates for the combination, drug A, drug B, and control groups, respectively. As before, µv is the mean tumor growth rate for the vehicle group, which in most cases is the same as the control group. The standard error of the synergy score was calculated as the square root of the sum of squared standard errors across the four groups. The degrees of freedom were estimated using the Welch-Satterthwaite equation. A hypothesis test was performed to determine if the synergy score differed from 0. P-values were calculated by dividing the synergy score by its standard error and tested against a t-distribution (two-tailed) with the above-calculated degrees of freedom. A P value of less than 0.05 is statistically significant.
(§4) The combination results can be interpreted as follows. Statistically significant negative synergy scores indicate a synergistic combination (“Syn.”). Statistically significant positive synergy scores indicate a sub-additive combination (“Sub-add.”) when the combination performs better (i.e. has a lower growth rate) than the best performing single agent. Statistically significant positive synergy scores indicate an antagonistic combination (“Antag.”) when the combination performs worse than the best performing single agent. Scores that are not statistically significant should be considered additive (“Add.”).
Daudi is a human Burkitt’s Lymphoma cell line. A Daudi human xenograft tumor model was generated by subcutaneous inoculation with 2.0 × 10^6 Daudi cells (cell suspension) in 7 weeks old female CB17 SCID mice (Charles River Laboratories, 251 Ballardvale St., Wilmington, MA) in the flank. When the mean tumor volume reached approximately 110 mm3, the animals were randomized into one vehicle control and six treatment groups (n=8/group). Mice were then dosed with 20% HPβCD or Compound I-263a and/or daratumumab or AB79 over a 21-day period. Tumor growth and body weight were measured twice per week during the treatment and post-treatment periods, and mice were humanely euthanized once they had reached their humane endpoint.
A 0.75 mg/mL stock solution of I-263a was formulated weekly in 20% HPβCD and administered intravenously (IV) based on an average body weight using a 0.2 mL dosing volume. Final doses of I-263a received were 7.5 mg/kg. I-263a was administered on a BIW schedule for 3 weeks (Days 1, 4, 8, 11, 15, and 18). Daratumumab (anti-CD38 antibody) (Myoderm Medical Supplies, 48 E Main St., Norristown, PA 19401) was purchased at the beginning of the study and stored at 4° C. according to manufacturer’s instructions. Final dose of daratumumab received was 7.5 mg/kg based on average body weight. Daratumumab was administered intraperitoneally (IP) using a 0.1 mL dosing volume, on a BIW schedule for 3 weeks (Days, 1, 4, 8, 11, 15, and 18). AB79 was formulated on the day of dosing in 0.9% saline and administered intraperitoneally (IP) using a 0.1 mL dosing volume, on a BIW schedule for 3 weeks (Days, 1, 4, 8, 11, 15, and 18). Final dose of AB79 was 7.5 mg/kg based on average body weight.
Tumors were measured twice weekly using Vernier calipers. Tumor volumes were calculated using standard equation: V = W2 × L/2, where V = volume, W = width, and L = length for the tumor. […]

[2] = system: A20-hCD38 mouse B-cell lymphoma cell line engineered to express the human CD38 cell surface protein; experiment: Study 2: A20-hCD38 syngeneic mouse tumor model; assay type: in vivo, Balb/c mice; details: for GRI%: vs vehicle; for Tumor growth relative to vehicle-treated tumors (pairwise comparison): I-263a 7.5 mg/kg QW or 15 mg/kg Q2W, daratumumab 20 mg/kg BIW, or I-263a plus daratumumab, data up to Day 15, p < 0.001
Description: as §1, §2, §3, §4
A20-hCD38 is a mouse B-cell lymphoma cell line engineered to express the human CD38 cell surface protein. An A20-hCD38 syngeneic mouse tumor model was generated by subcutaneous inoculation with 5.0 × 10^6 cells (cell suspension) in 6 weeks old female Balb/c mice (Jackson Laboratory, 10 Discovery Dr., Farmington, CT) in the flank. When the mean tumor volume reached approximately 70 mm^3, the animals were randomized into one vehicle control and five treatment groups (n=8/group). Mice were dosed with 20% HPβCD or Compound I-263a or daratumumab over a 28-day period. Tumor growth and body weight were measured twice per week during the treatment and post-treatment periods, and mice were humanely euthanized once they had reached their humane endpoint.
A 1.575 mg/mL and a 0.788 mg/mL stock solution of I-263a was formulated weekly in 20% HPβCD and administered IV based on an average body weight using a 0.2 mL dosing volume. Final doses I-263a received were 15 mg/kg or 7.5 mg/kg, respectively. I-263a was administered on a QW or Q2W schedule for 4 weeks (Days 1, 8, 15, and 22). Daratumumab (anti-CD38 antibody) (Myoderm Medical Supplies, 48 E Main St., Norristown, PA 19401) was purchased at the beginning of the study and stored at 4° C. according to manufacturer’s instructions. Final dose daratumumab received was 20 mg/kg based on average body weight. Daratumumab was administered intraperitoneally (IP) using a 0.1 mL dosing volume, on a BIW schedule for 4 weeks (Days 1, 4, 8, 11, 15, 18, 22 and 25).
Tumors were measured twice weekly using Vernier calipers. Tumor volumes were calculated using standard equation: V = W^2 × L/2, where V = volume, W = width, and L = length for the tumor. When mean tumor volumes reached approximately 70 mm^3, mice were randomized into control and treatment groups. Mice were randomized into 6 groups (n=8/group) and dosed with vehicle (20% HPβCD), I-263a, daratumumab, or the combination of I-263a plus daratumumab at doses and schedules as described above. […]

Molecule | Tumor Volume on Day 22 (±SEM) ([1]; I-263a 7.5 mg/kg BIW IV) | GRI% ([1]; I-263a 7.5 mg/kg BIW IV) | Tumor growth relative to vehicle-treated tumors (pairwise comparison) [1] | Tumor volume on Day 15 (± SEM) ([2]; I-263a 7.5 mg/kg QW IV) | GRI% ([2]; I-263a 7.5 mg/kg QW IV) | Tumor growth relative to vehicle-treated tumors (pairwise comparison) [2] | Tumor volume on Day 15 (± SEM) ([2]; I-263a 15 mg/kg Q2W IV) | GRI% ([2]; I-263a 15 mg/kg Q2W IV) | Tumor Volume on Day 22 (±SEM) ([1]; Daratumumab 7.5 mg/kg BIW IP) | GRI% ([1]; Daratumumab 7.5 mg/kg BIW IP) | Tumor volume on Day 15 (± SEM) ([2]; Daratumumab 20 mg/kg BIW IP) | GRI% ([2]; Daratumumab 20 mg/kg BIW IP)
Cc1sc(C(=O)c2cncnc2N[C@@H]2C[C@H](COS(N)(=O)=O)[C@@H](O)C2)cc1[C@@H]1NCCc2ccc(Cl)cc21 [Compound I-263a, [(1R,2S,4R)-4-{[5-({4-[(1R)-7-chloro-1,2,3,4-tetrahydroisoquinolin-1-yl]-5-methyl-2-thienyl}carbonyl)pyrimidin-4-yl]amino}-2-hydroxycyclopentyl]methyl sulfamate] | 1305 (±83.6) | 13% | tumor growth inhibition | 613.1 ± 179.3 | 37% | significant tumor growth inhibition | 839.7 ± 229.7 | 24% |  |  |  | 
Daratumumab: immunoglobulin G1 kappa (IgG1κ) human monoclonal antibody against CD38 antigen |  |  | tumor growth inhibition |  |  | significant tumor growth inhibition |  |  | 1004.9 (±97.1) | 31% | 1443.7 ± 276.4 | 3%
